Experimental findings from PubChem BioAssay AID463203 (Broad Institute, 2010) are described below.

For orientation: AC50 means the midpoint of the concentration-response curve, whichever way the signal moves.

Molecules are shown by their SMILES. Active and inactive are the calls of the source.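 The calls were made as follows: active = more than half of replicate measurements showing over 20% loss of kinase signal relative to plate controls; inconclusive = some but at most half of replicates over 20% loss; inactive = no replicate over 20% signal loss.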

The experiment concerns the target Glycogen synthase kinase-3 alpha (Homo sapiens) (UniProt P49840). Description: concentration-response blocking of human GSK3A – biochemical, luminescence, cell-free homogeneous, retest, dose response (AID 463203). The conditions noted are these: GSK-3 alpha enzyme, ADP-Glo luminescence, 60 min. A general note: ADP-Glo turns the ADP formed in a reaction into a luminescent signal.

Glycogen synthase kinase-3 alpha (Homo sapiens), sequence (P49840 whole entry, looked up): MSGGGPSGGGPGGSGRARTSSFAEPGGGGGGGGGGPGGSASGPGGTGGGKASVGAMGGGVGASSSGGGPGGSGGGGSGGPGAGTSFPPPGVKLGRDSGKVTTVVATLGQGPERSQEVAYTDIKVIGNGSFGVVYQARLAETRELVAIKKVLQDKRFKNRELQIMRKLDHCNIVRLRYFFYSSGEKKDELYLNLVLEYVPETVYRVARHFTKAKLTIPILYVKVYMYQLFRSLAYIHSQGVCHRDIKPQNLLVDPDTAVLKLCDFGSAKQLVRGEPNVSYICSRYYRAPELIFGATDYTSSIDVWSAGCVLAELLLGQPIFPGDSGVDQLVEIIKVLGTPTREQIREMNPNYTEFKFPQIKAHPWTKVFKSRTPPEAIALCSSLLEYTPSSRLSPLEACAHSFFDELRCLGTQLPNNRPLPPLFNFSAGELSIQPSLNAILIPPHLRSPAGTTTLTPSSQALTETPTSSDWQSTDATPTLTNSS

`O=C(CSc1nnc(-c2ccc(O)cc2)o1)Nc1cccc(O)c1`: the half-maximal activity concentration (AC50) was 21.6 µM.

For the compound `COc1ccc2nc(NC(=O)C3CCCN3S(=O)(=O)c3ccc(C)cc3)sc2c1` (stereo not drawn), the AC50 was > 30 µM (inactive).

For the compound `Cc1ccc(-c2nnc(CSc3nnc(C)s3)o2)cc1`, the AC50 is > 30 µM (inactive).

Consider `CCOC(=O)Nc1nc(C)c(C(=O)c2ccc(Cl)cc2)s1`, for which the AC50 is > 30 µM (inactive).

On to `CCNc1ccc2noc3c2c1C(=O)c1ccccc1-3`, for which the AC50 was 10.8 µM.

As for `O=C(c1ccc2c3n(nc2c1)-c1ccccc1CO3)N1CCOCC1`, the AC50 was 18.8 µM.

As for `O=c1cc(-c2ccc(O)c(O)c2)oc2c1ccc1ccccc12`, the AC50 was 5.66 µM.

For the compound `COc1ccc(CCNC(=O)CSc2nc3[nH]ncc3c(=O)n2-c2ccccc2OC)cc1OC`, the AC50 is 1.89 µM.

As for `O=C(CSc1nc2[nH]ncc2c(=O)n1-c1ccc(Cl)c(Cl)c1)NCc1ccccc1Cl`, the AC50 is > 30 µM (inactive).

As to `C#CCOCCOCCOCCNc1nc(N2CCOCC2)nc(N2CCN(C(=O)[C@H](CCC(=O)O)n3cc([C@@H](N)CCCCN)nn3)CC2)n1`, the AC50 is > 30 µM (inactive).

Turning to `Oc1[nH]c2ccc(Br)cc2c1N=Nc1ccc(F)cc1`, the concentration at half-maximal activity (AC50) is 7.48 µM.

Turning to `O=C(Nc1ccsc1C(=O)O)c1ccc(Cl)cc1`, the AC50 was > 30 µM (inactive).

Take `O=C(O)c1ccc(N=Cc2c(O)ccc3oc4c(c23)CCCC4)cc1`: the AC50 was > 30 µM (inactive).

For the compound `Cc1ccc(OCC(=O)NNC(=O)C(C)Sc2ncnc3sc(C)c(C)c23)cc1` (stereo not drawn), the AC50 was > 30 µM (inactive).

Turning to `COc1ccc(OC)c(/C=N/NC(=O)c2nnn(-c3nonc3N)c2-c2cccs2)c1`, the half-maximal activity concentration (AC50) was 1.35 µM.

`CC(=O)c1cnc(Nc2ccccc2)s1`: the concentration at half-maximal activity (AC50) was 20.2 µM.

Turning to `O=C(NCCCn1ccnc1)C(Cl)(Cl)Cl`, the AC50 is > 30 µM (inactive).

On to `Cc1cccc(C)c1OC(=O)Cc1ccccc1[N+](=O)[O-]`, for which the AC50 was > 30 µM (inactive).

For the compound `O=C(COC(=O)CCc1ccc(S(=O)(=O)N2CCOCC2)cc1)Nc1ccc(Cl)cn1`, the AC50 was 28.4 µM.

`COc1cc(/C=N/NC(=O)c2ccoc2C)ccc1O`: the AC50 is > 30 µM (inactive).

Turning to `CCOc1ccc(Cn2nnc(C(=O)Nc3cc(C)cc(C)c3)c2N)cc1`, the AC50 was > 30 µM (inactive).

As to `COc1ccc(-c2nc(N)ncc2-c2ccccc2)c(O)c1`, the AC50 was 15.5 µM.

As for `COc1ccc(OC)c(C2CC(=O)N3CN(c4ccccc4)CSC3=C2C#N)c1` (stereo not drawn), the AC50 is > 30 µM (inactive).

For `COc1cc(OC)cc(-c2nnc(SCc3c(F)cccc3Cl)o2)c1`, the AC50 is > 30 µM (inactive).

As to `Cc1ccc(-c2nnc(N3CCN(C(=O)COc4ccccc4)CC3)c3ccccc23)cc1`, the AC50 was > 30 µM (inactive).

On to `Cc1ccc(Cn2cc(/C=N/Nc3ccc([N+](=O)[O-])cn3)c3ccccc32)cc1`, for which the AC50 was > 30 µM (inactive).

For `COc1ccc(OC)c(C2=Nn3c(nnc3-c3ccncc3)SC2)c1`, the concentration at half-maximal activity (AC50) was 1.5 µM.

`CCOC(=O)c1[nH]c2c(c1-c1ccccc1)C(=O)CC(c1ccc(OCC)cc1)C2` (stereo not drawn): the AC50 is > 30 µM (inactive).

Take `CCCCc1cc(=O)oc2cc(O)ccc12`: the AC50 was 25.9 µM.

For `Cc1c(C(=O)NCCc2ccccc2)oc2ccccc12`, the AC50 was > 30 µM (inactive).

As for `CN1/C(=C/C2CC(=O)NC2=O)C(C)(C)c2ccccc21` (stereo not drawn), the concentration at half-maximal activity (AC50) was 5.14 µM.

With `Cc1ccc(C(=O)c2cc(C)sc2NC(=O)CN2CCN(C(=O)c3ccco3)CC2)cc1`, the AC50 is > 30 µM (inactive).

`Cc1sc2ncnc(NCCCN3CCCC3=O)c2c1C`: the AC50 was 21.5 µM.

As for `COc1ccc(-c2cc(C(=O)N3CCN(c4ccccc4)CC3)no2)cc1`, the AC50 was > 30 µM (inactive).

On to `N/C(=N\OC(=O)c1ccco1)c1ccc(Cl)cc1`, for which the AC50 is > 30 µM (inactive).

Turning to `CCOC(=O)C1=C(C)NC(C)=C(C(=O)OCC)C1c1sccc1C`, the AC50 is > 30 µM (inactive).

With `CCOC(=O)c1c(NC(=S)N2CCOCC2)sc2c1CCN(C(=O)OCC)C2`, the AC50 was > 30 µM (inactive).

As to `O=C(CSc1cccs1)Nc1ccc(Cl)cc1`, the AC50 is > 30 µM (inactive).

Regarding `Cc1nc(SCC(=O)Nc2nc3ccccc3s2)n[nH]1`, the AC50 is > 30 µM (inactive).

`CCOC(=O)c1oc2ccc3c(c2c1C)C(=O)CC1(CCN(C(=O)OCC)CC1)O3`: the AC50 is > 30 µM (inactive).

In the case of `C=CCN1C(=O)/C(=C\c2cccs2)C(C(=O)OC)=C1C`, the AC50 is > 30 µM (inactive).

As to `O=c1[nH]c2c(s1)C(c1ccc(O)cc1)C1C3CCC(C3)C1S2` (stereo not drawn), the half-maximal activity concentration (AC50) was 0.649 µM.

On to `CC(C)(C)c1ccc(/C=C2\Oc3cc(O)ccc3C2=O)cc1`, for which the AC50 is > 30 µM (inactive).

As for `O=C(c1coc2ccc(O)c(CN3CCOCC3)c12)C1CC1`, the concentration at half-maximal activity (AC50) is 22.8 µM.

On to `COc1ccc(C2CC(=O)Nc3n[nH]c(-c4ccccc4)c32)cc1OC` (stereo not drawn), for which the AC50 is 26.9 µM.

In the case of `C[C@H](CO)N1C[C@H](C)[C@@H](CN(C)S(=O)(=O)c2ccccc2)Oc2c(NC(=O)c3ccncc3)cccc2C1=O`, the AC50 was > 30 µM (inactive).

Turning to `N#Cc1c(NC(=O)CSc2n[nH]c(N)n2)oc(-c2ccccc2)c1-c1ccccc1`, the AC50 is > 30 µM (inactive).

Consider `CC1(C)CC(=O)C(C(c2ccncc2)C2C(=O)CC(C)(C)CC2=O)C(=O)C1`, for which the AC50 is > 30 µM (inactive).

Take `CC(C(=O)Nc1nccs1)c1ccc([N+](=O)[O-])cc1` (stereo not drawn): the AC50 was 20.5 µM.

As to `COc1cccc(-n2c(SCC(=O)NC3CCCC3)nnc2-c2ccco2)c1`, the AC50 is > 30 µM (inactive).

On to `O=C1OCCC/C1=C\c1ccc2c(c1)OCO2`, for which the half-maximal activity concentration (AC50) was 23.3 µM.

`CC(C)NC(=O)c1sc2nc3c(c(-c4cccs4)c2c1N)CN(C)CC3`: the AC50 was > 30 µM (inactive).

As for `N#Cc1c(C#N)c(-c2ccccc2)n(-c2ccc(C(=O)O)cc2)c1N`, the AC50 is 14.2 µM.

In the case of `O=C(Nc1cccnc1)c1scc2c1OCCO2`, the AC50 is 23.5 µM.

Turning to `Cc1nc(SCC(=O)NCC2CCCO2)c2c3c(sc2n1)CCCC3` (stereo not drawn), the AC50 is > 30 µM (inactive).

Consider `O=Cc1cn(-c2ccccc2)nc1-c1ccc2c(c1)OCCO2`, for which the AC50 is > 30 µM (inactive).

With `COc1ccc(-c2cc(=O)oc3cc(O)ccc23)cc1`, the concentration at half-maximal activity (AC50) is 19.5 µM.

For the compound `O=C(CSc1ccc2nnc(-c3ccccn3)n2n1)N1CCOCC1`, the AC50 is > 30 µM (inactive).

Take `CCOC(=O)c1cc(C)[nH]c1C`: the AC50 is > 30 µM (inactive).

For the compound `Nn1c(SCc2ccccc2F)nnc1-c1ccncc1`, the AC50 was > 30 µM (inactive).

Turning to `Fc1ccc(Nc2ncnc3sccc23)cc1`, the AC50 was > 30 µM (inactive).

Turning to `Oc1ccc(/C=N/NP(=S)(c2ccccc2)c2ccccc2)cc1O`, the AC50 is > 30 µM (inactive).

As to `CCCC1=C(C(=O)OCC)C(c2ccc(N(C)C)cc2)n2ncnc2N1` (stereo not drawn), the AC50 was > 30 µM (inactive).

Take `O=C(O)c1ccc(Nc2nc(-c3cccnc3)nc3ccccc23)cc1`: the AC50 was 9.3 µM.

Take `COc1ccc([N+](=O)[O-])cc1NC(=O)CCN1CCN(C)CC1`: the AC50 is > 30 µM (inactive).

As for `O=C(Cn1c(NCCCO)nc2ccccc21)c1ccc([N+](=O)[O-])cc1`, the AC50 is > 30 µM (inactive).

`O=c1[nH]ncn1-c1ccccc1`: the AC50 was > 30 µM (inactive).

As to `S=C(NCCc1ccccc1)Nc1cccc2cnccc12`, the AC50 was > 30 µM (inactive).

Take `COC(=O)c1c(C(C)=O)cnc2ccc(Br)cc12`: the AC50 was > 30 µM (inactive).

Consider `Cc1nc(NCCc2ccccc2)c(C#N)c(C)c1[N+](=O)[O-]`, for which the AC50 was > 30 µM (inactive).

Take `COCCNC(=O)c1ccc(Cn2c(=S)[nH]c3cc4c(cc3c2=O)OCO4)cc1`: the AC50 was > 30 µM (inactive).

In the case of `CC(=O)Nc1ccc(C(=O)OCC(=O)Nc2c(C)n(C)n(-c3ccccc3)c2=O)cc1`, the AC50 is > 30 µM (inactive).

For the compound `COc1ccc(O)c(-c2nc(N)nc(N)n2)c1`, the half-maximal activity concentration (AC50) was 3.88 µM.

Take `CCOC(=O)c1c(NC(=O)CN2C(=O)NC3(CCCCC3C)C2=O)sc(C)c1C` (stereo not drawn): the AC50 was > 30 µM (inactive).

Regarding `CCOC(=O)c1nc(NCc2ccccc2C)c2ccccc2n1`, the AC50 was > 30 µM (inactive).

Regarding `COc1ccc(/C=N/NC(=O)c2nnn(-c3nonc3N)c2-c2cccs2)c(OC)c1`, the AC50 is 1.04 µM.

Consider `COc1cccc(-c2nc(-c3ccccc3)[nH]c(=O)c2C#N)c1`, for which the AC50 was > 30 µM (inactive).

`Brc1ccccc1C1=Nn2c(nnc2-c2ccco2)SC1`: the AC50 was 17.5 µM.

On to `CCOc1cccc(-c2c(C(=O)N/N=C/c3cccnc3)nnn2-c2nonc2N)c1`, for which the concentration at half-maximal activity (AC50) was 4.67 µM.

As for `CN1CCCN(C(=O)CC(c2ccccc2)c2ccccc2)CC1`, the AC50 is > 30 µM (inactive).

`Cc1ccc(C(=O)N/N=c2\oc3ccccc3cc2C(N)=O)cc1`: the AC50 is > 30 µM (inactive).

Consider `O=C(CSc1nc2[nH]ncc2c(=O)n1-c1ccccc1)NCc1cccs1`, for which the AC50 was > 30 µM (inactive).

Turning to `Cc1ccc(C)c(Sc2ccc(NC(=O)CCl)cc2)c1`, the AC50 is > 30 µM (inactive).

`O=c1[nH]c(=S)n(Cc2ccc(F)cc2)c(O)c1C=NCCCn1ccnc1`: the AC50 was > 30 µM (inactive).

Consider `CCOC(=O)CSc1nc(N)c(C#N)c(-c2cccs2)c1C#N`, for which the AC50 was > 30 µM (inactive).

Take `O=c1oc2cc(O)ccc2c2ccccc12`: the AC50 is > 30 µM (inactive).

On to `Cc1cc(C)c(OCC(O)CNC(C)(C)C)c(C)c1` (stereo not drawn), for which the AC50 is > 30 µM (inactive).

On to `CCOC(=O)N1CC=C2C(C#N)=C(N)C(C#N)(C#N)[C@H](c3cccs3)C2C1` (stereo partly drawn), for which the concentration at half-maximal activity (AC50) was 23.1 µM.

For `CCOC(=O)c1cnc2c(C)c(Cl)ccc2c1N1CCN(CC)CC1`, the AC50 is > 30 µM (inactive).

Take `CCN(C(=O)CN1CCCCCC1)c1c(N)n(Cc2ccccc2)c(=O)[nH]c1=O`: the AC50 is > 30 µM (inactive).

As for `CCN1C(=O)C(=C/C=C/c2ccco2)C(=O)N(CC)C1=S`, the AC50 was > 30 µM (inactive).

Consider `N#Cc1cc(Cl)c(NCC2CCCO2)cc1C#N` (stereo not drawn), for which the AC50 was > 30 µM (inactive).

`CCOC(=O)c1nnn(-c2nonc2OC)c1-c1ccccc1`: the AC50 was > 30 µM (inactive).
